In patent US9963482B2, “Phosphatidylinositol-3-kinase inhibitor and pharmaceutical composition” (Tohoku University, priority 2011, dated 2018):
Like-named read-outs stand apart in the source and are kept apart here. Blank lines part the entries; values can stand above or below the compound they belong to.

Experiments:
HCT116 cells [1] = experiment: FACS cell cycle analysis in HCT116 cells; format: cell-based, human; settings: HCT116, 24 hours; SAHA 2.5 μM, LY294002 50 μM, FK228 or FK-A5 at low concentration
Description: The cells were collected, fixed with ethanol, stained with iodopropidium/PBS solution, and analyzed by using “Cytomics FC500 Flow Cytometry System” (trade name, manufactured by Beckman Coulter). The cell cycle fractions were calculated by using “Multicycle software” (trade name, manufactured by Phenomix Flow Systems).

PI3K (p110α/p85α) = target: T1, PI3K (p110α/p85α) (Homo sapiens, UniProt P42336); experiment: In vitro PI3K inhibitory activity by mobility shift assay (Carna Biosciences); format: biochemical; settings: for PI3K activity inhibitory rate: compound 20 μM, 50 μM ATP
T1 construct: purchased Carna Biosciences, Inc. (Kobe); contract measurement
Description: The PI3K (p110α/p85α) inhibitory activity was evaluated at Carna Biosciences, Inc. (Kobe) by mobility shift assay which included isolation and quantification of a substrate and the phosphorylated substrate based on the mobility in a capillary (https://www.carnabio.com/japanese/product/search.cgi?mode=profiling). […] After allowing the reaction to occur for 5 hours at room temperature, the mobility shift assay was performed. The test was performed in duplicate.
Inhibition rate was calculated as follows.
The value of product/substrate+product when an agent was added thereto was calculated similarly, and the inhibition rate was calculated based on a difference from the control value.

HCT116 cells [2] = experiment: Western blotting for apoptosis, AKT and histone acetylation in HCT116 cells; format: cell-based, human; settings: HCT116, 24 hours, 5 μM
Description: With regard to Western blotting, HCT116 cells were treated for 24 hours with SAHA or FK-228 at predetermined concentrations, and then the expression of PARP, cleaved PARP, phosphorylated AKT (S473), AKT, acetylated histone H3, and acetylated histone H4 was analyzed.

[3] = system: AKT pathway in PC3 (prostate cancer) cells; experiment: AKT pathway inhibition by Western blotting in PC3 cells; format: cell-based, human; settings: for expression level of phosphorylated AKT (Ser-473, Thr-308) over time: 5 to 180 minutes
Description: PC3 cells were obtained from Cell Resource Center for Medical Research of Institute of Development, Aging, and Cancer, Tohoku University. The cells were cultured at 37° C. in the presence of 5% CO2 by using RPMI1640 medium containing inactivated fetal bovine serum at the concentration of 10%.
Western blotting was performed as follows. Various kinds of the cells treated with each compound were collected and lysed in a lysis buffer (500 mM Tris-HCl pH 7.5, 100 mM NaCl, 2 mM EDTA, 1 mM sodium orthovanadate, 1% NP-40, and 1% protease inhibitor cocktail, manufactured by SIGMA-ALDRICH). After centrifugation, the supernatants were collected.
The followings were used as primary antibodies.
As a secondary antibody, “Alexa Fluor680IgG” (trade name, manufactured by Invitrogen) was used. By using “Odyssey Infrared Imaging System” (trade name, manufactured by LI-COR), expression of the protein of interest was determined.

[4] = target: T2, human p110α expressed in budding yeast (Homo sapiens, UniProt P42336); experiment: Screening of PI3K inhibitor using budding yeast (recovery from cell proliferation disorder caused by p110α); format: cell-based; settings: AD1-9 transformant expressing p110α, compound 5 μM, 24 hours, average of three tests
T2 construct: expressed in transfected cells; host or cells: Saccharomyces cerevisiae AD1-9 (LEU2-disrupted), galactose-induced
Description: AD1-9 strain can be obtained from Nader Nourizad (Stanford Genome Technology Center Stanford University, CA, USA).
The transformed AD 1-9 strain was cultured at 30° C. in a minimal complete medium SC-U-L containing no uracil and leucine or SGal-U-L in which 2% glucose was replaced with 2% galactose.
By using the aforementioned system, screening of the compound library, which was obtained from the Screening committee of anticancer drugs supported by grant-in-aid for scientific research on priority area “Cancer” from Ministry of Education, Culture, Sports, Science, and Technology, Japan, was performed. Each compound was added to SGal-U-L liquid medium to constitute a concentration of 0.5 μM or 5 μM and the transformant of AD 1-9 was cultured for 24 hours under shaking. Thereafter, A600 was measured. […] Three independent tests were repeatedly performed to calculate the average value of A600.

HDAC6 = target: T3, HDAC6 (Homo sapiens, UniProt Q9UBN7); settings: Table 2; cited from earlier work
T3 sequence (Q9UBN7 1-1215): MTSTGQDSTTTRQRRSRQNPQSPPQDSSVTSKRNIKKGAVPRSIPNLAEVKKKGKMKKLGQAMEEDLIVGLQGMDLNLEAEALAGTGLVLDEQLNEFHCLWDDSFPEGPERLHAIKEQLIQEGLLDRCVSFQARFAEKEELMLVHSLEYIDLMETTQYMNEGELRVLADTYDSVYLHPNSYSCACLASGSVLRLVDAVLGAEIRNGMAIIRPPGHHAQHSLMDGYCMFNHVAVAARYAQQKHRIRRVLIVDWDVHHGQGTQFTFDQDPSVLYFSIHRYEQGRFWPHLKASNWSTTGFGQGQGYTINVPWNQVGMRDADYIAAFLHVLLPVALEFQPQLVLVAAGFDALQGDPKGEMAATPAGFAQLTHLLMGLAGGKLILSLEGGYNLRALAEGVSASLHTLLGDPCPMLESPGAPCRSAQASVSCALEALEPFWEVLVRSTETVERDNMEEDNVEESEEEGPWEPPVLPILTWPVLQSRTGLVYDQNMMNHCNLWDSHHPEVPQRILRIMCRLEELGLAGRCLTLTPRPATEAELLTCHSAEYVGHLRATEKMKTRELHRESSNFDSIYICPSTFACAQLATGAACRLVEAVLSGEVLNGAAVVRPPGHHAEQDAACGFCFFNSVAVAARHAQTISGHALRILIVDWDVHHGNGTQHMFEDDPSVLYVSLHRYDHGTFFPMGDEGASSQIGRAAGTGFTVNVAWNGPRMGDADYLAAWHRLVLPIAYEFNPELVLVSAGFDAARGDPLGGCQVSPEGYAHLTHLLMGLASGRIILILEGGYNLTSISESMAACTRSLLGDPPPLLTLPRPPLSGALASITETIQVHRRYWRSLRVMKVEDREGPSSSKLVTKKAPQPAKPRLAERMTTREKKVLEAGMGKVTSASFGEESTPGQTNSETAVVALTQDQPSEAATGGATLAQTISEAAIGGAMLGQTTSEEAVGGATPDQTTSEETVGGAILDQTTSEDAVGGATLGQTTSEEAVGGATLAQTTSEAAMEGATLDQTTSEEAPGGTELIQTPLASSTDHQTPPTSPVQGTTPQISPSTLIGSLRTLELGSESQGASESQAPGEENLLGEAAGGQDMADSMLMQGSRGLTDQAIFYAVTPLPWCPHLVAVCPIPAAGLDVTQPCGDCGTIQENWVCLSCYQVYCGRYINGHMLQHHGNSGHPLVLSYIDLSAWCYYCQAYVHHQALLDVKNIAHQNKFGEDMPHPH

HDAC1 = HDAC1 (Homo sapiens, UniProt Q13547); settings: Table 2; cited from earlier work
[5] = Table 3, PI3K (p110α/p85α), read-out: PI3K IC50

Chain of HDAC1 (Q13547 whole entry, species assumed): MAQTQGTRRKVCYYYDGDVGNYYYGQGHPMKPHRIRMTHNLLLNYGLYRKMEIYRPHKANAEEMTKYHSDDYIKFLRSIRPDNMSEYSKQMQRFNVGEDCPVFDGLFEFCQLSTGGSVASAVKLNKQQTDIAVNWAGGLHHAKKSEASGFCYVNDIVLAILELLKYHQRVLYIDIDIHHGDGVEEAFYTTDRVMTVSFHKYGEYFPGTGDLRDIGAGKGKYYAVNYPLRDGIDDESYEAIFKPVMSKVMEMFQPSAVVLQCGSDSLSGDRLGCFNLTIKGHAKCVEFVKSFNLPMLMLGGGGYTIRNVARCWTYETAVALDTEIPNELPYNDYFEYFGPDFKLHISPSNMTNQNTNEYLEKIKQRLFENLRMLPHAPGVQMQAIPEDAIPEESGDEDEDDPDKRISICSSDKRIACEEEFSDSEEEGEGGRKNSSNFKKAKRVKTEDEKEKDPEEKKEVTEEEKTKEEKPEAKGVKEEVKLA
T1 sequence (P42336 whole entry): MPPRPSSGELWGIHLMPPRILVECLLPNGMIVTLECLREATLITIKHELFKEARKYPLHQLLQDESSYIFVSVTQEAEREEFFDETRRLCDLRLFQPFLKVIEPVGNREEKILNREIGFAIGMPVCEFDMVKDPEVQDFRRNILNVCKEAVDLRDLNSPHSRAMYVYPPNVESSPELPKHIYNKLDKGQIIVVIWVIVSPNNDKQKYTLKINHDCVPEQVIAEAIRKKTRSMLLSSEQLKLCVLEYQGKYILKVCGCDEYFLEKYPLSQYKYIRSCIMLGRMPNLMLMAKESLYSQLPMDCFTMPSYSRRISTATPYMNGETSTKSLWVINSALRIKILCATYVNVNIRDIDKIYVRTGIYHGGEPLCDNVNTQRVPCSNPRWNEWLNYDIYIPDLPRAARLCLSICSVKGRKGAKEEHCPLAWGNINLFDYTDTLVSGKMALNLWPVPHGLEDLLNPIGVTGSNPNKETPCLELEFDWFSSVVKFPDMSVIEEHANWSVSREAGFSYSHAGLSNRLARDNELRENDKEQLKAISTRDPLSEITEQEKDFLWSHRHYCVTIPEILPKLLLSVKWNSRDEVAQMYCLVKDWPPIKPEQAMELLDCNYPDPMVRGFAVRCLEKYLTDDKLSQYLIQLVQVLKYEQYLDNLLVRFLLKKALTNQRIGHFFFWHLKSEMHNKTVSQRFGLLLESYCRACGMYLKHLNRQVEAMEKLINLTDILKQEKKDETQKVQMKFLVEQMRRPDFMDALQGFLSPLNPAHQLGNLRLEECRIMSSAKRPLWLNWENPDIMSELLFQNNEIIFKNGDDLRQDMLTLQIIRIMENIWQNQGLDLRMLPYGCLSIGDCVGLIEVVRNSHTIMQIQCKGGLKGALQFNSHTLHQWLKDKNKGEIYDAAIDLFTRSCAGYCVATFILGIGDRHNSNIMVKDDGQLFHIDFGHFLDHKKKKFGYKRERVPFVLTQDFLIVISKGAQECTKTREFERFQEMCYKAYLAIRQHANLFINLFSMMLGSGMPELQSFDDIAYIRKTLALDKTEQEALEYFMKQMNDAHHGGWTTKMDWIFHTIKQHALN
T1 sequence (P27986 whole entry partner): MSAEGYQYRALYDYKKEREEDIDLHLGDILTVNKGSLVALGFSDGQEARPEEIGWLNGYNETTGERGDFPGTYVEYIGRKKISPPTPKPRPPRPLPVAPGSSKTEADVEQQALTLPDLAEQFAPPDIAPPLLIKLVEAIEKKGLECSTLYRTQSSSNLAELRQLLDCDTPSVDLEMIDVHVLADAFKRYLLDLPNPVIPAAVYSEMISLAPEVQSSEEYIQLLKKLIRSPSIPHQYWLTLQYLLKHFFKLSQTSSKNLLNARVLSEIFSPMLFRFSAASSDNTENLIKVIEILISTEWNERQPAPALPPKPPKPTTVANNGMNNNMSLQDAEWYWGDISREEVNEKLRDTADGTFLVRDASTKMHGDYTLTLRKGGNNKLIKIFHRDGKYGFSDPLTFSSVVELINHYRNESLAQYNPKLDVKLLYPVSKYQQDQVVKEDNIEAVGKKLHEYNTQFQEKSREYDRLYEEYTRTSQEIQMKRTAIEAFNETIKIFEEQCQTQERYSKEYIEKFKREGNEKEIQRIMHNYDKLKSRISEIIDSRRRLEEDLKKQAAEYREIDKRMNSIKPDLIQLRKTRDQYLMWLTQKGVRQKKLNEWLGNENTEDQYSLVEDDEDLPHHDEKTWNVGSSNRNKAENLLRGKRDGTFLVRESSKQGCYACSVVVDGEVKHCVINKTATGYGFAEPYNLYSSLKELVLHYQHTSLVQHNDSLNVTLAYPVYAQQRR
T2 sequence (P42336 whole entry): as the sequence (P42336 whole entry) above

Structure (SMILES): C/C=C1\NC(=O)[C@H]2CSSCC/C=C/[C@H](CC(=O)N[C@H](C(C)C)C(=O)N2)OC(=O)[C@H](C(C)C)NC1=O [FK228, romidepsin]
- cell cycle arrest (HCT116 cells [1]): induced cell cycle arrest, predominantly at G2/M phase
- IC50 (PI3K (p110α/p85α); high ATP concentration (500 μM), read-out: IC50 for PI3K): 125 µM
- inhibition at 10 µM (PI3K (p110α/p85α); read-out: inhibition rate in the PI3K inhibition curve): 6.5%
- IC50 (PI3K (p110α/p85α); standard ATP concentration (50 μM), read-out: IC50 for PI3K): 57.2 µM
- Cleaved PARP (HCT116 cells [2]): increased most
- expression of acetylated histone (HCT116 cells [2]): enhanced the expression of acetylated histone
- phosphorylated AKT (HCT116 cells [2]): inhibited the phosphorylated AKT
- expression level of phosphorylated AKT (Ser-473, Thr-308) over time ([3]; 10 μM): lowered the expression level of phosphorylated AKT (Ser-473, Thr-308)
- lowering of expression level of phosphorylated AKT (S473) compared to control ([3]; 10 μM, 180 minutes): 66%
- lowering of expression level of phosphorylated AKT (T308) compared to control ([3]; 10 μM, 180 minutes): 86%
- phosphorylated ERK1/2 ([3]; 180 minutes): slightly inhibited
- phosphorylated MEK1/2 ([3]; 180 minutes): not inhibited
- expression levels of phosphorylated AKT, GSK-3β, mTOR, p70S6K and 4E-BP1 ([3]; 180 minutes, varying concentration): inhibited in a concentration dependent manner
- A600 [4]: 0.385

Structure (SMILES): C/C=C1\NC(=O)C2CSSCC/C=C/C(CC(=O)N[C@H](C(C)C)C(=O)N2)OC(=O)CNC1=O (some centres unmarked) [FK-A1]
- IC50 (HDAC6): 3.2 µM
- IC50 (HDAC1): 7.8 nM

Structure (SMILES): CC(C)C1NC(=O)CC2/C=C/CCSSCC(NC1=O)C(=O)NCC(=O)NCC(=O)O2 (centres unmarked) [FK-A2]
- IC50 (HDAC6): 4.8 µM
- IC50 (HDAC1): 45 nM

Structure (SMILES): CC(C)C1NC(=O)CC2/C=C/CCSSCC(NC1=O)C(=O)N[C@H](C)C(=O)NCC(=O)O2 (some centres unmarked) [FK-A3]
- IC50 (HDAC6): 3.2 µM
- PI3K activity inhibitory rate (PI3K (p110α/p85α)): higher inhibition rate than FK228
- IC50 (HDAC1): 4.2 nM
- A600 [4]: 0.380

Structure (SMILES): CC(C)[C@H]1NC(=O)CC2/C=C/CCSSCC(NC1=O)C(=O)N[C@@H](C)C(=O)NCC(=O)O2 (some centres unmarked) [FK-A4]
- IC50 (HDAC6): 2.1 µM
- IC50 (HDAC1): 340 nM

- PI3K activity inhibitory rate (PI3K (p110α/p85α)): higher inhibition rate than FK228
Structure (SMILES): CC(C)[C@H]1NC(=O)CC2/C=C/CCSSCC(NC1=O)C(=O)N[C@@H](Cc1ccccc1)C(=O)NCC(=O)O2 (some centres unmarked) [FK-A6]
- IC50 (HDAC6): 2.9 µM
- IC50 (HDAC1): 19 nM

- IC50 (PI3K (p110α/p85α); [5]): 32.2 µM
Structure (SMILES): CC(C)C[C@H]1NC(=O)C2CSSCC/C=C/C(CC(=O)N[C@H](C(C)C)C(=O)N2)OC(=O)CNC1=O (some centres unmarked) [FK-A7]

- IC50 (PI3K (p110α/p85α); [5]): 44.7 µM
Structure (SMILES): CC(C)C[C@@H]1NC(=O)C2CSSCC/C=C/C(CC(=O)N[C@H](C(C)C)C(=O)N2)OC(=O)CNC1=O (some centres unmarked) [FK-A8]

- IC50 (PI3K (p110α/p85α); [5]): 14.1 µM
Structure (SMILES): CC(C)[C@H]1NC(=O)CC2/C=C/CCSSCC(NC1=O)C(=O)N[C@H](Cc1ccc(O)cc1)C(=O)NCC(=O)O2 (some centres unmarked) [FK-A9]

- IC50 (PI3K (p110α/p85α); [5]): 26.7 µM
Structure (SMILES): COc1ccc(C[C@H]2NC(=O)C3CSSCC/C=C/C(CC(=O)N[C@H](C(C)C)C(=O)N3)OC(=O)CNC2=O)cc1 (some centres unmarked) [FK-A10]

- IC50 (PI3K (p110α/p85α); [5]): 7.2 µM
Structure (SMILES): CC(C)[C@H]1NC(=O)CC2/C=C/CCSSCC(NC1=O)C(=O)N[C@@H](Cc1cccc3ccccc13)C(=O)NCC(=O)O2 (some centres unmarked) [FK-A12]

- IC50 (PI3K (p110α/p85α); [5]): 8.5 µM
Structure (SMILES): CC(C)[C@H]1NC(=O)CC2/C=C/CCSSCC(NC1=O)C(=O)N[C@H](Cc1ccc3ccccc3c1)C(=O)NCC(=O)O2 (some centres unmarked) [FK-A13]

- IC50 (PI3K (p110α/p85α); [5]): 20.2 µM
Structure (SMILES): CC(C)[C@H]1NC(=O)CC2/C=C/CCSSCC(NC1=O)C(=O)N[C@H](Cc1ccc(F)cc1)C(=O)NCC(=O)O2 (some centres unmarked) [FK-A17]

- A600 [4]: 0.482
Structure (SMILES): O=c1cc(N2CCOCC2)oc2c(-c3ccccc3)cccc12 [LY294002]
- cell cycle arrest (HCT116 cells [1]): induced arrest of G0/G1 phase
- expression level of phosphorylated AKT (Ser-473, Thr-308) over time ([3]; 10 μM): lowered the expression level of phosphorylated AKT (Ser-473, Thr-308)

Structure (SMILES): O=C(CCCCCCC(=O)Nc1ccccc1)NO [SAHA, suberoyl anilide hydroxamic acid]
- cell cycle arrest (HCT116 cells [1]): induced arrest of G2/M phase

- A600 [4]: 0.412
Structure (SMILES): CC(C)C1NC(=O)C2CSSCC/C=C/C(CC(=O)N[C@H](C)C(=O)N2)OC(=O)C[C@@H]1O (some centres unmarked) [SP-1, spiruchostatin A]
- IC50 (HDAC6): 1.6 µM
- IC50 (HDAC1): 3.3 nM

Structure (SMILES): CC[C@H](C)C1NC(=O)C2CSSCC/C=C/C(CC(=O)N[C@H](C)C(=O)N2)OC(=O)C[C@@H]1O (some centres unmarked) [SP-2, spiruchastatin B]
- IC50 (HDAC6): 1.4 µM
- IC50 (HDAC1): 2.2 nM

- A600 [4]: 0.464
Structure (SMILES): CC[C@@H](C)C1NC(=O)C2CSSCC/C=C/C(CC(=O)N[C@H](C)C(=O)N2)OC(=O)C[C@@H]1O (stereo partly drawn) [SP-3, 5″-epi-spiruchostatin B]
- IC50 (HDAC6): 3.9 µM
- IC50 (HDAC1): 2.4 nM

- PI3K activity inhibitory rate (PI3K (p110α/p85α)): higher inhibition rate than FK228
Structure (SMILES): CC(C)[C@H]1NC(=O)C2CSSCC/C=C/C(CC(=O)N[C@H](C(C)C)C(=O)N2)OC(=O)C[C@@H]1O (some centres unmarked) [SP-5, spiruchostatin D]
